Test results reported in patent US3984548A, “Substituted pyrido[1,2,3,-de]-1,4-benzoxazines as bactericides” (Riker Laboratories, Inc., priority 1974, dated 1976).

Tests used:
Assay type in all cases: cell-based
Design in all cases: key: +: active; -: inactive
Conditions in all cases: agar plates, 1 to 100 milligrams/liter
[1] = tested on: Mima polymorpha; assay: standard plate dilution method, Mima polymorpha
Method: (§1) The culture medium employed permits susceptibility testing of fastidious microorganisms towards antibiotics, sulfonamides and other chemotherapeutic agents. Tryptone soy agar (oxoid) of the following composition is the culture medium. In the test procedure, the amount of a compound required to give complete inhibition or no inhibition of the microbial growth on the agar plates was determined. The compound selected for evaluation is added to the agar medium to give concentrations of one, ten and one hundred milligrams per liter. A series of plates with these concentrations is prepared. Plates containing agar alone are included as controls. Ten percent horse serum is added to one series of such plates. Aliquots of broth culture of each of nine species of microorganisms are innoculated onto the agar plates containing the various compound concentrations and onto the control plates. The plates are incubated at 37° C. in a 10 percent carbon dioxide atmosphere for 18 to 25 hours. The microbial growth on each plate is read visually, and minimal inhibitory concentrations are recorded.

[2] = tested on: Escherichia coli; assay: standard plate dilution method, Escherichia coli
Method: as §1

[3] = tested on: Bacillus Subtilus; assay: standard plate dilution method, Bacillus subtilus
Method: as §1

[4] = tested on: Herellea vaginicola; assay: standard plate dilution method, Herellea vaginicola
Method: as §1

[5] = tested on: Pseudmonas aeruginosa; assay: standard plate dilution method, Pseudomonas aeruginosa
Method: as §1

[6] = tested on: Streptococcus Sp; assay: standard plate dilution method, Streptococcus sp.
Method: as §1

[7] = tested on: Staphylococcus aureus; assay: standard plate dilution method, Staphylococcus aureus
Method: as §1

Row | SMILES | Microorganism MP (growth inhibition) [1] | Microorganism EC (growth inhibition) [2] | Microorganism BS (growth inhibition) [3] | Microorganism HV (growth inhibition) [4] | Microorganism PA (growth inhibition) [5] | Microorganism SS (growth inhibition) [6] | Microorganism SA (growth inhibition) [7]
1 | Cc1ccc2c(=O)c(C(=O)O)cn3c2c1OCC3C (centres unmarked) [Example 39 (acid)] | + | + | + | + | + | + | -
2 | CC1COc2c(Cl)ccc3c(=O)c(C(=O)O)cn1c23 (centres unmarked) [Example 22, 10-chloro-2,3-dihydro-3-methyl-7-oxo-7H-pyrido[1,2,3-de]-1,4-benzoxazine-6-carboxylic acid] | + | + | + | + | + | + | +
3 | CC1COc2c(F)ccc3c(=O)c(C(=O)O)cn1c23 (centres unmarked) [Example 21, 2,3-dihydro-10-fluoro-3-methyl-7-oxo-7H-pyrido[1,2,3-de]-1,4-benzoxazine-6-carboxylic acid] | - | + | + | + | - | + | +
4 | CC1COc2cc(Cl)cc3c(=O)c(C(=O)O)cn1c23 (centres unmarked) [Example 23, 9-chloro-2,3-dihydro-3-methyl-7-oxo-7H-pyrido[1,2,3-de]-1,4-benzoxazine-6-carboxylic acid] | - | + | + | + | - | + | +
5 | O=C(O)c1cn2c3c(cccc3c1=O)OCC2 [Example 18, 2,3-dihydro-7-oxo-7H-pyrido[1,2,3-de]-1,4-benzoxazine-6-carboxylic acid] | - | - | + | - | - | - | -
6 | Cc1c(Cl)cc2c(=O)c(C(=O)O)cn3c2c1OCC3C (centres unmarked) [Example 34 (acid)] | + | + | + | + | + | + | +
7 | CCOC(=O)c1cn2c3c(cc(F)cc3c1=O)OCC2C (centres unmarked) [Example 6, ethyl 2,3-dihydro-9-fluoro-3-methyl-7-oxo-7H-pyrido[1,2,3-de]-1,4-benzoxazine-6-carboxylate] | - | + | + | + | + | - | +
8 | CC1COc2ccc(Cl)c3c(=O)c(C(=O)O)cn1c23 (centres unmarked) [Example 17, 8-chloro-2,3-dihydro-3-methyl-7-oxo-7H-pyrido[1,2,3-de]-1,4-benzoxazine-6-carboxylic acid] | - | + | + | + | - | + | -
9 | CC1COc2cccc3c(=O)c(C(=O)O)cn1c23 (centres unmarked) [Example 19, 2,3-dihydro-3-methyl-7-oxo-7H-pyrido[1,2,3-de]-1,4-benzoxazine-6-carboxylic acid] | - | + | + | + | - | - | +
10 | CCOC(=O)c1cn2c3c(c(C)cc(C)c3c1=O)OCC2C (centres unmarked) [Example 42 (ester)] | - | - | + | - | - | - | -
11 | CCOC(=O)c1cn2c3c(c(C)ccc3c1=O)OCC2C (centres unmarked) [Example 39 (ester)] | - | + | - | - | + | + | -
12 | Cc1cc(Cl)c2c3c1c(=O)c(C(=O)O)cn3C(C)CO2 (centres unmarked) [Example 37 (acid)] | + | + | + | + | + | + | +
13 | Cc1ccc2c3c1c(=O)c(C(=O)O)cn3C(C)CO2 (centres unmarked) [Example 26, 8-methyl-2,3-dihydro-3-methyl-7-oxo-7H-pyrido[1,2,3-de]-1,4-benzoxazine-6-carboxylic acid] | - | + | + | + | - | + | +
14 | CCOC(=O)c1cn2c3c(ccc(F)c3c1=O)OCC2C (centres unmarked) [Example 5, ethyl 2,3-dihydro-8-fluoro-3-methyl-7-oxo-7H-pyrido[1,2,3-de]-1,4-benzoxazine-6-carboxylate] | - | + | + | + | - | - | -
15 | Cc1cc2c3c(c1C)c(=O)c(C(=O)O)cn3C(C)CO2 (centres unmarked) [Example 40 (acid)] | + | + | + | + | + | + | +
16 | CC1COc2c(Cl)cc([N+](=O)[O-])c3c(=O)c(C(=O)O)cn1c23 (centres unmarked) [Example 38 (acid)] | - | + | + | + | - | - | +
17 | COc1cc2c3c(c1)c(=O)c(C(=O)O)cn3C(C)CO2 (centres unmarked) [Example 20, 2,3-dihydro-9-methoxy-3-methyl-7-oxo-7H-pyrido[1,2,3-de]-1,4-benzoxazine-6-carboxylic acid] | - | + | + | + | - | - | +
